Data taken from patent US8796285B2, “Pyrazolo [1,5-a]-pyrimidones derivatives and pharmaceutical compositions and uses thereof” (Hebei Medical University, priority 2009, dated 2014).
Like-named read-outs stand apart in the source and are kept apart here.

Key:
KCNQ2/3 = target: T1, KCNQ2/3 (Homo sapiens, UniProt O43525+O43526); assay: High throughput atomic absorption Rb+ efflux testing, KCNQ2/3; type: cell-based; conditions: Rb+ efflux by atomic absorption
T1 construct: expressed in transfected cells

[1] = target: KCNQ4 potassium ion channel (Homo sapiens, UniProt P56696); assay: High throughput atomic absorption Rb+ efflux testing, CHO cell of KCNQ4 channel; type: cell-based; conditions: for EC50: CHO cell of KCNQ4 channel
Text: Atomic absorption Rb^+ efflux testing is a fast and safe selection method for high throughput potassium channel moderator, and is characterized in that the activity of the ion channel and the control effect of the opener are directly reflected. Rb and K have similar atomic size, and potassium ion channel is permeable to Rb^+. By testing concentration of the Rb^+ efflux, a status of the potassium channel, which is an open status or a close status, can be determined. Rb has specific absorption at 780 nm, and Rb^+ concentration can be determined by atomic absorption spectroscopy. Accordingly, analysis method of atomic absorption spectroscopy can be used to select the opener/inhibitor of potassium channel through high throughput of Rb^+ efflux.
Stable cell transfer of CHO cell of KCNQ4 channel at log phase and inoculate in 96-well culture plate at a density of 2×10^4 unit/well. Each concentration has a triplicate-hole setting, and a control setting with solvent of corresponding concentration. Allow growth against the well-wall overnight, then discard the culture medium, add 200 μl loading buffer which contains RbCl, and culture in 5% CO2 at 37° C. for 3 hours. Then remove the loading buffer and wash with wash buffer for 3 times. Screen for the KCNQ opener, dilute testing compound with depolarization buffer, add 200 μl of the above solvent into the cell and allow reaction for 10 minutes. Incubate for 10 minutes, then carefully draw 200 μl supernatant to another 96-well culture plate, use ICR8000 atomic absorption spectrometry to determine the Rb^+ atomic absorption at 780 nm. Based on the equation Fsupern=(Rb_supern/cpd/Rb_supern/d)×100, calculate the corresponding rate of efflux.

Male SD rats = assay: Formalin-induced pain model; type: in vivo; conditions: rat
Experimental: Pharmaceutical composition used: the compound number 42 for the testing group, no medication for the positive control group, which is a blank control model.
Testing method: Male SD rats are randomly divided into control group, ipsilateral treatment group (treatment on the same side) and contralateral treatment group (treatment on the opposite side). After 30 minutes from administration of pharmaceutical compound, administer 20 μl of 20 g/L formalin by subcutaneous injection in foot bottom of back paw on the same side or the opposite side of pharmaceutical compound administration, an occurrence of typical lateral swinging and shaking of rat's tail is deemed as successful in preparing induced-pain model, in the next 60 minutes, observe the rat's licking and biting behavior towards the formalin's injection paw at each 5-min interval.

[2] = Rb+ efflux by atomic absorption, read-out: KCNQ4

| SMILES | EC50 (KCNQ2/3) [µM] | EC50 [1, 2] [µM] | other results |
| --- | --- | --- | --- |
| COc1ccc(-c2c(C(F)(F)F)nn3c(=O)cc(C(F)(F)F)[nH]c23)cc1OC [Compound 2, 3-(3,4-dimethoxyphenyl)-2,5-bis(trifluoromethyl)pyrazolo[1,5-a]pyrimidin-7(4H)-one] | 5.65 ± 3.13 | 12.1 ± 0.23 |  |
| O=c1cc(-c2cc(F)c(Cl)nc2Cl)[nH]c2c(-c3ccc(F)cc3)c(C(F)(F)F)nn12 [Compound 18, 5-(2,6-dichloro-5-fluoropyrindin-3-yl)-3-(4-fluorophenyl)-2-(trifluoromethyl)pyrazolo[1,5-a]pyrimidin-7(4H)-one] | 78.7 ± 12.3 | 120 ± 3.23 |  |
| O=c1cc(-c2cc(F)c(Cl)nc2Cl)[nH]c2c(-c3ccc(F)cc3)c(C(F)(F)F)nn12 [Compound 22] | 1.28 ± 0.12 | 0.15 ± 0.09 |  |
| COc1ccc(-c2c(C(F)(F)F)nn3c(=O)cc(-c4cc(F)c(Cl)nc4Cl)[nH]c23)cc1OC [Compound 23] | 22.1 ± 1.23 | 10.3 ± 0.43 |  |
| O=c1cc(C(F)(F)F)[nH]c2c(-c3cccc4ccccc34)c(C(F)(F)F)nn12 [Compound 38, 2,5-bis(trifluoromethyl)-3-(naphthalen-1-yl)pyrazolo[1,5-a]pyrimidin-7(4H)-one] | 9.29 ± 26.3 | 4.82 ± 3.45 |  |
| O=c1cc(-c2cc(F)c(Cl)nc2Cl)[nH]c2c(-c3cccc4ccccc34)c(C(F)(F)F)nn12 [Compound 42] | 0.53 ± 0.28 |  | accumulated time of licking/biting back paw, first phase (Male SD rats; 0-10 min after formalin injection, treatment vs control group, p>0.05): no significant difference; accumulated time of licking/biting back paw, second phase (Male SD rats; 10-60 min after formalin, ipsilateral treatment group vs control group, p<0.05): decrease in accumulated time of licking/biting back paw; activating effect on the CHO cell of the KCNQ4 potassium ion channel ([1]; Rb+ efflux at 0.03, 0.1, 0.6, 1, 3 and 10 μM, FIG. 4): dose-dependent activating effect; EC50 ([1]; Rb+ efflux, 0.03-10 μM, FIG. 4, read-out: EC50): 0.96 ± 0.51 µM |
| O=c1cc(-c2cc(F)c(Cl)nc2Cl)[nH]c2c(-c3cccs3)c(C(F)(F)F)nn12 [Compound 60] | 5.32 ± 2.23 | 1.14 ± 0.34 |  |
| O=c1cc(CN2CCNCC2)[nH]c2c(-c3cccs3)c(C(F)(F)F)nn12 [Compound 61] | 77.7 ± 21.3 | 33.3 ± 2.12 |  |
| CCOC(=O)c1c(-c2ccc(Cl)cc2)nn2c(=O)cc(C(F)(F)F)[nH]c12 [Compound 73, ethyl 7-oxo-2-(4-chlorophenyl)-5-(trifluoromethyl)-4,7-dihydropyrazolo[1,5-a]pyrimidine-3-carboxylate] | 135 ± 32.2 | 60.6 ± 3.28 |  |
| O=c1cc(C(F)(F)F)[nH]c2c(-c3c[nH]c4ccccc34)c(-c3ccc(Cl)cc3)nn12 [Compound 77, 2-(4-chlorophenyl)-3-(1H-indol-3-yl)-5-trifluoromethylpyrazolo[1,5-a]pyrimidin-7(4H)-one] | 32.2 ± 9.32 | 82.3 ± 19.3 |  |
| O=C(OCc1cc(=O)n2nc(C(F)(F)F)c(N3CCNCC3)c2[nH]1)C(F)(F)F [Compound 86, (2-trifluoromethyl-3-piperazinyl-7-oxo-4,7-dihydropyrazolo[1,5-a]pyrimidin-5-yl)methyl-2,2,2-trifluoroacetate] | 98.3 ± 65.2 | 50.1 ± 1.34 |  |
| O=c1cc(-c2cc(F)c(Cl)nc2Cl)[nH]c2c(-c3cccs3)c(C(Cl)(Cl)Cl)nn12 [Compound 94, 5-(2,6-dichloro-5-fluoropyrido)-3-(thiophen-2-yl)-2-trichloromethyl pyrazolo[1,5-a]pyrimidin-7(4H)-one] | 0.28 ± 0.32 | 0.54 ± 0.23 |  |
| O=c1cc(CCl)[nH]c2c(-c3cccs3)c(C(F)(F)F)nn12 [Compound 96, 5-chloromethyl-3-(thiophen-2-yl)-2-trifluoromethylpyrazolo[1,5-a]pyrimidin-7(4H)-one] |  | 5.41 ± 2.29 |  |
| O=c1cc(-c2cc(F)c(F)cc2F)[nH]c2c(-c3ccccc3)c(C(Cl)(Cl)Cl)nn12 [Compound 99, 3-phenyl-2-trichloromethyl-5-(2,4,5-trifluorophenyl)pyrazolo[1,5-a]pyrimidin-7(4H)-one] | 54.5 ± 32.1 | 18.4 ± 1.34 |  |
| O=c1cc(CCl)[nH]c2c(-c3cccs3)c(Cl)nn12 [Compound 108, 2-chloro-3-(thiophen-2-yl)-5-chloromethylpyrazolo[1,5-a]pyrimidin-7(4H)-one] | 56.8 ± 19.4 | 91.2 ± 33.2 |  |
| O=C(NCc1cc(=O)n2nc(Cl)c(-c3ccc4ccccc4c3)c2[nH]1)C(F)(F)F [Compound 116, N-((2-chloro-3-(naphthalen-2-yl)-7-oxo-4,7-dihydropyrazolo[1,5-a]pyrimidin-5-yl)methyl)-2,2,2-trifluoroacetamide] | 210 ± 9.8 | 43.2 ± 13.7 |  |

Now from value to compound, other results behind:

| EC50 (KCNQ2/3) [µM] | EC50 [1, 2] [µM] | SMILES | other results |
| --- | --- | --- | --- |
| 100 ± 13.3 | 67.8 ± 2.67 | CCOC(=O)c1c(C(F)(F)F)nn2c(=O)cc(-c3ccccc3)[nH]c12 [Compound 5] |  |
| 4.76 ± 1.35 | 24.5 ± 4.67 | O=c1cc(-c2ccc(Cl)cc2)[nH]c2c(-c3ccc(F)cc3)c(C(F)(F)F)nn12 [Compound 8, 2-trifluoromethyl-3-(4-fluorophenyl)-5-(4-chlorophenyl)-pyrazole[1,5-a]pyrimidin-7(4H)-one] |  |
| 40.2 ± 2.34 | 62.1 ± 1.12 | O=c1cc(-c2ccccc2)[nH]c2c(-c3ccccc3)c(C(F)(F)F)nn12 [Compound 19, 3,5-diphenyl-2-(trifluoromethyl)pyrazolo[1,5-a]pyrimidin-7(4H)-one] |  |
| 1.28 ± 1.16 | 5.87 ± 2.67 | O=c1cc(C(F)(F)F)[nH]c2c(-c3ccccc3)c(C(F)(F)F)nn12 [Compound 20, 2,5 bis(trifluoromethyl)-3-phenylpyrazolo [1,5-a]pyrimidin-7(4H)-one] |  |
| 85.3 ± 3.45 | 35 ± 1.21 | O=c1cc(CN2CCCCC2)[nH]c2c(-c3ccccc3)c(C(F)(F)F)nn12 [Compound 25, 5-(piperidin-1-ylmethyl)-3-phenyl-2-trifluoromethylpyrazolo[1,5-a]pyrimidin-7(4H)-one] |  |
| 1.26 ± 0.68 | 12.2 ± 0.82 | O=c1cc(-c2cccc([N+](=O)[O-])c2)[nH]c2c(-c3ccccc3)c(C(F)(F)F)nn12 [Compound 30, 5-(3-nitrophenyl)-3-phenyl-2-trifluoromethylpyrazolo[1,5-a]pyrimidin-7(4H)-one] |  |
| 138 ± 9.28 | 44.5 ± 5.28 | O=C(Cc1ccc(C(F)(F)F)cc1)NCc1cc(=O)n2nc(C(F)(F)F)c(-c3ccccc3)c2[nH]1 [Compound 35] |  |
| 5.21 ± 3.21 | 21.7 ± 9.72 | O=c1cc(CCl)[nH]c2c(-c3cccc4ccccc34)c(C(F)(F)F)nn12 [Compound 39, 5-chloromethyl-3-(naphthalen-1-yl)-2-trifluoromethylpyrazolo[1,5-a]pyrimidin-7(4H)-one] |  |
| 89.2 ± 24.2 | 46.2 ± 2.34 | COc1ccc(-c2cc(=O)n3nc(C(F)(F)F)c(-c4cccc5ccccc45)c3[nH]2)cc1 [Compound 47, 5-(4-methoxyphenyl)-3-(naphthalen-1-yl)-2-trifluoromethylpyrazolo[1,5-a]pyrimidin-7(4H)-one] |  |
